The values that follow come from patent US10793568B2, “Hormone receptor modulators for treating metabolic conditions and disorders” (ARDELYX, INC., priority 2016, dated 2020).

Usually pEC50 stands for the negative decadic logarithm of the EC50, by convention in mol/L. Low values mean a large EC50, high ones a small EC50. By EC50 is commonly meant the concentration that produces a half-maximal response. A low value points to a more potent agent.

Test [1] has as its target ligand binding domain of human FXR (Homo sapiens (Human), UniProt Q96RI1). The test is described as follows: FXR ligand binding assay (LanthaScreen TR-FRET, SRC2-2 peptide recruitment). The conditions noted are these: for pEC50: -log EC50, concentration required to produce 50% activation; for Emax: extent of activation relative to GW4064, read-out: % Efficacy. For orientation: TR-FRET usually uses a lanthanide donor and a delayed reading to cut background.

Test [2] has as its target human Farnesoid X receptor ligand-binding domain/Gal4 DNA binding domain chimera (Homo sapiens (Human), UniProt Q96RI1). The test is described as follows: Cell-based assay of FXR activation (FXR-UAS-bla HEK 293T beta-lactamase reporter). The conditions noted are these: cellular FXR beta-lactamase reporter assay; for Emax: HEK-293T, extent of activation relative to GW4064, read-out: % Efficacy; for EC50: FXR-UAS-bla HEK 293T cells, 16 h, pEC50 = -log EC50. A digest of the protocol: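 HEK 293T cells stably expressing a Gal4-fused human FXR LBD and a UAS-driven beta-lactamase reporter were incubated with serially diluted compounds for 16 h at 37 °C in phenol red-free DMEM with 2% charcoal-stripped FBS. CCF4 FRET read-out: excitation 409 nm, emission 447 nm. pEC50 comes from a 3-parameter logistic fit, and efficacy is given as % of GW4064.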
Background: A reporter such as luciferase makes a cellular process visible.

Chain of human Farnesoid X receptor ligand-binding domain/Gal4 DNA binding domain chimera (Q96RI1 262-486, change not shown): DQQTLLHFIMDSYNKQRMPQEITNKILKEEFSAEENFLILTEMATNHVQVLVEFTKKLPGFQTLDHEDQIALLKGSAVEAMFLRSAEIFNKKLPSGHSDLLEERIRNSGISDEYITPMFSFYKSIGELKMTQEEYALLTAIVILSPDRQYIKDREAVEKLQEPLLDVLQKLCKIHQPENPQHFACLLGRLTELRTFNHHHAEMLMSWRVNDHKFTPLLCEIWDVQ
Chain of human Farnesoid X receptor ligand-binding domain/Gal4 DNA binding domain chimera (P04386 1-147 partner): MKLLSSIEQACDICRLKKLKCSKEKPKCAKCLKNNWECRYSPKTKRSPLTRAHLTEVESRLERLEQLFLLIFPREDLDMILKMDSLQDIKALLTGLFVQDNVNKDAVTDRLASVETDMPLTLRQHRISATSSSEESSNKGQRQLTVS
Chain of ligand binding domain of human FXR (Q96RI1 262-486): as the sequence (Q96RI1 262-486, change not shown) above

With `CC(C)c1cccc(F)c1-c1noc(C2CC2)c1CO[C@@H]1C[C@@H]2C[C@H]1C(=O)N2c1ccc(C(=O)O)cc1` [Compound I-310, 4-[(1S,4R,5R)-5-({5-cyclopropyl-3-[2-fluoro-6-(propan-2-yl)phenyl]-1,2-oxazol-4-yl}methoxy)-3-oxo-2-azabicyclo[2.2.1]heptan-2-yl]benzoic Acid], in test [1], the pEC50 worked out at 7.6 and the Emax is 155%. Further, in test [2], the Emax turned out to be 115% and the EC50 is 7.94 nM.

On to `O=C(O)c1ccc(N2C(=O)[C@@H]3C[C@H]2C[C@H]3OCc2c(-c3c(F)cccc3C3CC3)noc2C2CC2)cc1` [Compound I-311, 4-[(1S,4R,5R)-5-{[5-cyclopropyl-3-(2-cyclopropyl-6-fluorophenyl)-1,2-oxazol-4-yl]methoxy}-3-oxo-2-azabicyclo[2.2.1]heptan-2-yl]benzoic Acid], for which, in test [1], the pEC50 is reported as 7.8 and the Emax is 148%. For the same compound, in test [2], the Emax is 105% and it took 3.98 nM to reach a half-maximal effect (EC50).

For the compound `O=C(O)C1CCc2cc(N3C(=O)[C@@H]4C[C@H]3C[C@H]4OCc3c(-c4c(Cl)cccc4Cl)noc3C3CC3)ccc21` (stereo partly drawn) [Compound I-312, 5-[(1S,4R,5R)-5-{[5-cyclopropyl-3-(2,6-dichlorophenyl)-1,2-oxazol-4-yl]methoxy}-3-oxo-2-azabicyclo[2.2.1]heptan-2-yl]-2,3-dihydro-1H-indene-1-carboxylic Acid], in test [1], the pEC50 is on record as 7 and the Emax was 149%. Moreover, in test [2], the Emax was found to be 134% and a half-maximal response (EC50) required 20 nM.

Consider `O=C(O)C1Cc2ccc(N3C(=O)[C@@H]4C[C@H]3C[C@H]4OCc3c(-c4c(Cl)cccc4Cl)noc3C3CC3)cc2C1` (stereo partly drawn) [Compound I-313, 5-[(1S,4R,5R)-5-{[5-cyclopropyl-3-(2,6-dichlorophenyl)-1,2-oxazol-4-yl]methoxy}-3-oxo-2-azabicyclo[2.2.1]heptan-2-yl]-2,3-dihydro-1H-indene-2-carboxylic Acid], for which, in test [1], the negative-log EC50 (pEC50) is 7 and the Emax amounted to 140%. For the same compound, in test [2], the Emax turned out to be 112% and the midpoint of the response, the EC50, lay at 25.1 nM.

Consider `O=C(O)c1ccc(N2C(=O)[C@@H]3C[C@H]2C[C@H]3OCc2c(-c3c(Cl)cccc3Cl)noc2C2CC2)cc1F` [Compound I-314, 4-[(1S,4R,5R)-5-{[5-cyclopropyl-3-(2,6-dichlorophenyl)-1,2-oxazol-4-yl]methoxy}-3-oxo-2-azabicyclo[2.2.1]heptan-2-yl]-2-fluorobenzoic Acid], for which, in test [1], the pEC50 is 8.4 and the Emax worked out at 145%. In test [2], the Emax amounted to 103% and a half-maximal response (EC50) required 2.51 nM.

On to `O=C(O)c1ccc(N2C(=O)[C@@H]3C[C@H]2C[C@H]3OCc2c(-c3c(Cl)cccc3Cl)noc2C2CC2)c(F)c1` [Compound I-315, 4-[(1S,4R,5R)-5-{[5-cyclopropyl-3-(2,6-dichlorophenyl)-1,2-oxazol-4-yl]methoxy}-3-oxo-2-azabicyclo[2.2.1]heptan-2-yl]-3-fluorobenzoic Acid], for which, in test [1], the pEC50 worked out at 7.4 and the Emax is 157%. In addition, in test [2], the Emax worked out at 106% and the EC50 is 25.1 nM.

In the case of `Cc1cc(N2C(=O)[C@@H]3C[C@H]2C[C@H]3OCc2c(-c3c(Cl)cccc3Cl)noc2C2CC2)ccc1C(=O)O` [Compound I-316, 4-[(1S,4R,5R)-5-{[5-cyclopropyl-3-(2,6-dichlorophenyl)-1,2-oxazol-4-yl]methoxy}-3-oxo-2-azabicyclo[2.2.1]heptan-2-yl]-2-methylbenzoic Acid], in test [1], the negative-log EC50 (pEC50) turned out to be 7.6 and the Emax stood at 152%. Further, in test [2], the Emax stood at 109% and the EC50 is 7.94 nM.

With `Cc1cc(C(=O)O)ccc1N1C(=O)[C@@H]2C[C@H]1C[C@H]2OCc1c(-c2c(Cl)cccc2Cl)noc1C1CC1` [Compound I-317, 4-[(1S,4R,5R)-5-{[5-cyclopropyl-3-(2,6-dichlorophenyl)-1,2-oxazol-4-yl]methoxy}-3-oxo-2-azabicyclo[2.2.1]heptan-2-yl]-3-methylbenzoic Acid], in test [1], the negative-log EC50 (pEC50) is given as 6.7 and the Emax was 131%. Further, in test [2], the Emax was 126% and the EC50 is 100 nM.

As to `CCc1cc(N2C(=O)[C@@H]3C[C@H]2C[C@H]3OCc2c(-c3c(Cl)cccc3Cl)noc2C2CC2)ccc1C(=O)O` [Compound I-318, 4-[(1S,4R,5R)-5-{[5-cyclopropyl-3-(2,6-dichlorophenyl)-1,2-oxazol-4-yl]methoxy}-3-oxo-2-azabicyclo[2.2.1]heptan-2-yl]-2-ethylbenzoic Acid], in test [1], the pEC50 stood at 7.2 and the Emax is 127%. In addition, in test [2], the Emax was 116% and the EC50 is 6.31 nM.

Turning to `O=C(O)c1ccc(N2C(=O)[C@@H]3C[C@H]2C[C@H]3OCc2c(-c3c(Cl)cccc3Cl)noc2C2CC2)cc1C1CC1` [Compound I-319, 2-cyclopropyl-4-[(1S,4R,5R)-5-{[5-cyclopropyl-3-(2,6-dichlorophenyl)-1,2-oxazol-4-yl]methoxy}-3-oxo-2-azabicyclo[2.2.1]heptan-2-yl]benzoic Acid], in test [1], the pEC50 came to 7.4 and the Emax stood at 118%. Further, in test [2], the Emax stood at 113% and a half-maximal effect (EC50) was put at 10 nM.

With `O=C(O)c1ccc(C2CC2)cc1N1C(=O)[C@@H]2C[C@H]1C[C@H]2OCc1c(-c2c(Cl)cccc2Cl)noc1C1CC1` [Compound I-320, 4-cyclopropyl-2-[(1S,4R,5R)-5-{[5-cyclopropyl-3-(2,6-dichlorophenyl)-1,2-oxazol-4-yl]methoxy}-3-oxo-2-azabicyclo[2.2.1]heptan-2-yl]benzoic Acid], in test [1], the pEC50 was 7.5 and the Emax was 114%. For the same compound, in test [2], the Emax came to 110% and the half-maximal effective concentration (EC50) is 20 nM.

As to `CC1(C)CC(S(=O)(=O)NC(=O)c2ccc(N3C(=O)[C@@H]4C[C@H]3C[C@H]4OCc3c(-c4c(Cl)cccc4Cl)noc3C3CC3)cc2)CCO1` (stereo partly drawn) [Compound I-329, 4-[(1S,4R,5R)-5-{[5-cyclopropyl-3-(2,6-dichlorophenyl)-1,2-oxazol-4-yl]methoxy}-3-oxo-2-azabicyclo[2.2.1]heptan-2-yl]-N-[(2,2-dimethyloxan-4-yl)sulfonyl]benzamide], in test [1], the pEC50 is listed as 9 and the Emax came out at 162%. Further, in test [2], the Emax is 117% and the 50% effective concentration (EC50) is 0.794 nM.

`CC1(C)CC(S(=O)(=O)NC(=O)c2ccc(N3C(=O)[C@@H]4C[C@H]3C[C@H]4OCc3c(-c4c(Cl)cccc4Cl)noc3C3CC3)cc2F)CCO1` (stereo partly drawn) [Compound I-330, 4-[(1S,4R,5R)-5-{[5-cyclopropyl-3-(2,6-dichlorophenyl)-1,2-oxazol-4-yl]methoxy}-3-oxo-2-azabicyclo[2.2.1]heptan-2-yl]-N-[(2,2-dimethyloxan-4-yl)sulfonyl]-2-fluorobenzamide]: in test [1], the pEC50 is listed as 8.8 and the Emax came out at 156%. In test [2], the Emax came out at 120% and the concentration giving a half-maximal response (EC50) was 0.158 nM.

With `O=C(NS(=O)(=O)C1CC1)c1ccc(N2C(=O)[C@@H]3C[C@H]2C[C@H]3OCc2c(-c3c(Cl)cccc3Cl)noc2C2CC2)cc1F` [Compound I-331, 4-((1S,4R,5R)-5-((5-cyclopropyl-3-(2,6-chlorophenyl)isoxazol-4-yl)methoxy)-3-oxo-2-azabicyclo[2.2.1]heptan-2-yl)-N-(cyclopropylsulfonyl)-2-fluorobenzamiide], in test [1], the pEC50 amounted to 8.7 and the Emax is 180%. Further, in test [2], the Emax worked out at 107% and a half-maximal response (EC50) required 0.316 nM.
